For this data set the following is noted: other bond.

Where two headings read alike, the source gives them in different places.

The record followed here is US11136349.

For the setting “from α-phenylacryloyl-Phe-Leu-Ala-Phe-Gly-OH, 17-membered ring, Ir[dF(CF3)ppy]2(dtbbpy)PF6/K2HPO4/blue LED, DMF, 2.5 mM”, `CC(C)C[C@@H]1NC(=O)[C@H](Cc2ccccc2)NC(=O)C(c2ccccc2)CCNC(=O)[C@H](Cc2ccccc2)NC(=O)[C@H](C)NC1=O` (stereo partly drawn) [cyclo-[Aba(2-Ph)-Phe-Le-Ala-Phe]] displayed a ring closure, conversion of 95%. With `C#CC[C@@H]1NC(=O)[C@H](Cc2ccccc2)NC(=O)CCCNC(=O)[C@H](CCCCNC(=O)OC(C)(C)C)NC(=O)[C@H](C)NC1=O` [cyclo-[Aba-Phe-Pra-Ala-Lys(Boc)]], the ring closure, conversion (from acryloyl-Phe-Pra-Ala-Lys(Boc)-Gly-OH, 17-membered ring, Ir[dF(CF3)ppy]2(dtbbpy)PF6/K2HPO4/blue LED, DMF, 5.0 mM) is 82%. Consider `CC(C)C[C@@H]1NC(=O)[C@H](Cc2ccccc2)NC(=O)CCCNC(=O)[C@H](Cc2cn(C(c3ccccc3)(c3ccccc3)c3ccccc3)cn2)NC(=O)[C@H](C)NC1=O` [cyclo-[Aba-Phe-Leu-Ala-His(Trt)]], for which the ring closure, conversion (from acryloyl-Phe-Leu-Ala-His(Trt)-Gly-OH, 17-membered ring, Ir[dF(CF3)ppy]2(dtbbpy)PF6/K2HPO4/blue LED, DMF, 1.0 mM) came to 65%. `C[C@@H]1NC(=O)CCCNC(=O)[C@H](Cc2ccc(OC(C)(C)C)cc2)NC1=O` [cyclo-[Aha-Ala-Tyr(tBu)]] displayed a ring closure, conversion (from acryloyl-Ala-Tyr(tBu)-Gly-OH, 11-membered ring, Ir[dF(CF3)ppy]2(dtbbpy)PF6/K2HPO4/TRIP-SH/blue LED, DMF, 1.0 mM) of 24%. As to `CC(C)C[C@@H]1NC(=O)[C@H](Cc2ccc(OC(C)(C)C)cc2)NC(=O)[C@H](C(C)C)NC(=O)[C@H]([C@@H](C)OC(C)(C)C)NC(=O)[C@H](C)NC(=O)[C@@H]2CCCN2C(=O)[C@H](CC(C)C)NC(=O)[C@H](Cc2ccccc2)NC(=O)[C@H](C)NC(=O)CCCNC1=O` [cyclo-[Aba-Ala-Phe-Leu-Pro-Ala-Thr(tBu)-Val-Tyr(tBu)-Leu]], under “from acryloyl-Ala-Phe-Leu-Pro-Ala-Thr(tBu)-Val-Tyr(tBu)-Leu-Gly-OH, 32-membered ring, Ir[dF(CF3)ppy]2(dtbbpy)PF6/K2HPO4/blue LED, DMF, 2.5 mM”, the ring closure, conversion came to 64%. `CC(C)C[C@@H]1NC(=O)[C@H](Cc2ccccc2)NC(=O)CCC(CCC(=O)O)NC(=O)[C@H](Cc2ccccc2)NC(=O)[C@H](C)NC1=O` (stereo partly drawn) [cyclo-[Ahda-Phe-Leu-Ala-Phe]] gave a ring closure, conversion (from acryloyl-Phe-Leu-Ala-Phe-Glu-OH, 17-membered ring, Ir[dF(CF3)ppy]2(dtbbpy)PF6/K2HPO4/blue LED, DMF, 2.5 mM) of 38%.

As for `CSCC[C@@H]1NC(=O)[C@H](Cc2ccccc2)NC(=O)CCCNC(=O)[C@H](CCC(=O)OC(C)(C)C)NC(=O)[C@H](CC(C)C)NC1=O` [cyclo-[Aba-Phe-Met-Leu-Glu(OtBu)]], under “from acryloyl-Phe-Met-Leu-Glu(tBu)-Gly-OH, 17-membered ring, Ir[dF(CF3)ppy]2(dtbbpy)PF6/K2HPO4/TRIP-SH/blue LED, DMF, 2.5 mM”, the ring closure, conversion turned out to be 40%.

Molecule `CC(C)C[C@@H]1NC(=O)[C@H](CCC(=O)OC(C)(C)C)NC(=O)[C@@H]2CCCN2C(=O)[C@H](C)NC(=O)[C@H](Cc2ccccc2)NC(=O)CCCNC(=O)[C@H](C)NC(=O)[C@H](Cc2ccccc2)NC1=O` [cyclo-[Aba-Phe-Leu-Ala-Phe]] registered a ring closure, conversion (from acryloyl-Phe-Ala-Pro-Glu(OtBu)-Leu-Phe-Ala-Gly-OH, 26-membered ring, Ir[dF(CF3)ppy]2(dtbbpy)PF6/K2HPO4/blue LED, DMF, 5.0 mM) of 61%. In the case of `CC(C)C[C@@H]1NC(=O)[C@H](Cc2ccccc2)NC(=O)CCCNC(=O)[C@H](Cc2ccc(Br)cc2)NC(=O)[C@H](C)NC1=O` [cyclo-[Aba-Phe-Leu-Ai-Phe(4-Br)]], the ring closure, conversion (from acryloyl-Phe-Leu-Ala-Phe(4-Br)-Gly-OH, 17-membered ring, Ir[dF(CF3)ppy]2(dtbbpy)PF6/K2HPO4/TRIP-SH/blue LED, DMF, 2.5 mM) was found to be 48%. Under “from acryloyl-Phe-MeAla-Tyr(tBu)-Val-Gly-OH, 17-membered ring, Ir[dF(CF3)ppy]2(dtbbpy)PF6/K2HPO4/blue LED, DMF, 5.0 mM”, `CC(C)[C@@H]1NC(=O)[C@H](Cc2ccc(OC(C)(C)C)cc2)NC(=O)[C@H](C)N(C)C(=O)[C@H](Cc2ccccc2)NC(=O)CCCNC1=O` [cyclo-[Aba-Phe-(Me)Ala-Tyr(tBu)-Val]] had a ring closure, conversion of 66%. `CC(C)CC1CCC(=O)N[C@@H](Cc2ccccc2)C(=O)N[C@@H](CC(C)C)C(=O)N[C@@H](C)C(=O)N[C@@H](Cc2ccccc2)C(=O)N1C` (stereo partly drawn) [cyclo-[(Me)Aba(4-iBu)-Phe-Leu-Ala-Phe]] yielded a ring closure, conversion (from acryloyl-Phe-Leu-Ala-Phe-MeLeu-OH, 17-membered ring, Ir[dF(CF3)ppy]2(dtbbpy)PF6/K2HPO4/blue LED, DMF, 5.0 mM) of 77%. `CC(C)C[C@@H]1NC(=O)[C@H](Cc2ccccc2)NC(=O)CCC2(CCCC2)NC(=O)[C@H](Cc2ccccc2)NC(=O)[C@H](C)NC1=O` [cyclo[(3-Aep)pa-Phe-[Leu-Aa-Phe]] came in with a ring closure, conversion (from acryloyl-Phe-Leu-Ala-Phe-Aepe-OH, 17-membered ring, Ir[dF(CF3)ppy]2(dtbbpy)PF6/K2HPO4/blue LED, DMSO, 2.5 mM) of 49%.

Turning to `CC(C)[C@@H]1NC(=O)CCCNC(=O)[C@H](Cc2cn(C(=O)OC(C)(C)C)c3ccccc23)NC(=O)[C@H](Cc2ccccc2)NC(=O)[C@H]([C@@H](C)OC(C)(C)C)NC1=O` [cyclo-[Aba-Val-Thr(tBu)-Phe-Trp(Boc)], the ring closure, conversion (from acryloyl-Val-Thr(tBu)-Phe-Trp(Boc)-Gly-OH, 17-membered ring, Ir[dF(CF3)ppy]2(dtbbpy)PF6/K2HPO4/blue LED, DMF, 2.5 mM) is 56%. `C[C@@H]1NC(=O)[C@H](CCCNC(=NC(=O)OC(C)(C)C)NC(=O)OC(C)(C)C)NC(=O)[C@H](Cc2ccccc2)NC(=O)CCCNC(=O)[C@H](COC(C)(C)C)NC1=O` [cyclo-[Aha-Phe-Arg(Bo)2-Ser(tBu)-Ala]]: the ring closure, conversion (from acryloyl-Phe-Arg(Boc)2-Ala-Ser(tBu)-Gly-OH, 17-membered ring, Ir[dF(CF3)ppy]2(dtbbpy)PF6/K2HPO4/TRIP-SH/blue LED, DMF, 2.5 mM) was 59%.

The molecule `CC(C)C[C@@H]1NC(=O)[C@H](Cc2ccccc2)NC(=O)CCC2(CC2)NC(=O)[C@H](Cc2ccccc2)NC(=O)[C@H](C)NC1=O` [cyclo[(3-Ac)pa-Phe-Leu-Ala-Phe]] had a ring closure, conversion (from acryloyl-Phe-Leu-Ala-Phe-Acc-OH, 17-membered ring, Ir[dF(CF3)ppy]2(dtbbpy)PF6/K2HPO4/blue LED, DMSO, 2.5 mM) of 48%. Where the note is “47-membered ring, Ir[dF(CF3)ppy]2(dtbbpy)PF6/K2HPO4/blue LED, DMF, 0.25 mM”, “cyclo-[Aba-Ala-Leu-Pbe-Lys(Boc)-Pro-Ala-Phe-Ala-Leu-Pro-Glu(OBu)-Leu-Phe-VaI]” came in with a ring closure, conversion of 60%. As for `CC(C)C[C@@H]1NC(=O)[C@H](Cc2ccccc2)NC(=O)CCCNC(=O)[C@H](Cc2ccccc2)NC(=O)[C@H](C)NC1=O` [cyclo-[Aba-Phe-Leu-Ala-Phe]], for the setting “from acryloyl-Phe-Leu-Ala-Phe-Gly-OH, 17-membered ring, Ir[dF(CF3)ppy]2(dtbbpy)PF6/K2HPO4/blue LED, DMF, 2.5 mM”, the ring closure, conversion is 93%.

Regarding `CC(C)C[C@@H]1NC(=O)[C@H](CCC(=O)NC(c2ccccc2)(c2ccccc2)c2ccccc2)NC(=O)[C@H](Cc2ccccc2)NC(=O)CCCNC(=O)[C@H](CCCCNC(=O)OC(C)(C)C)NC1=O` [cyclo-[Aba-Phe-Gln(Trt)-Leu-Lys(Boc)]], the ring closure, conversion (from acryloyl-Phe-Gln(Trt)-Leu-Lys(Boc)-Gly-OH, 17-membered ring, Ir[dF(CF3)ppy]2(dtbbpy)PF6/K2HPO4/blue LED, DMF, 2.5 mM) turned out to be 94%.
